Measured values: patent publication US20150231236A1, “METHODS FOR TREATING PATIENTS WITH HYPERCHOLESTEROLEMIA THAT IS NOT ADEQUATELY CONTROLLED BY MODERATE-DOSE STATIN THERAPY” (Regeneron Pharmaceuticals, Inc., priority 2014, published 2015)

Test system: patients with hypercholesterolemia at high CV risk not adequately controlled with rosuvastatin (10 mg or 20 mg)
Experiment: Example 3: randomized, double-blind trial, lipid efficacy of mAb316P add-on to rosuvastatin vs EZE add-on or rosuvastatin dose doubling
Assay type: in vivo, human
Description: The present study was a randomized, double-blind, active-comparator, parallel-group study in patients at high CV risk with non-FH or heFH who are not adequately controlled with rosuvastatin (10 mg or 20 mg) with or without other lipid-modifying therapy (LMT) (excluding EZE). The study design is illustrated in FIG. 2. Patients who entered the study were taking either rosuvastatin 10 mg or rosuvastatin 20 mg. The former patients were randomized to 1 of 3 treatment arms (arms 1 to 3); the latter patients were randomized to 1 of 3 treatment arms (arms 4 to 6). The treatment arms are as follows:
(B) a double-blind treatment period of 24 weeks. […] The patient/caregiver administered subsequent injections outside of the clinic according to the dosing schedule. […] The last dose of daily oral study drugs was administered at week 24.
The first injection of study drug was administered at the clinical site, as soon as possible after the patient was randomized into the study. The patient was monitored at the clinical site for at least 30 minutes following the first injection. The patient/caregiver administered subsequent injections outside of the clinic, according to the dosing schedule.
The primary efficacy endpoint was the percent change in calculated LDL-C from baseline to week 24, which is defined as: 100× (calculated LDL-C value at week 24−calculated LDL-C value at baseline)/calculated LDL-C value at baseline. The baseline calculated LDL-C value was the last LDL-C level obtained before the first double-blind study drug injection. The calculated LDL-C at week 24 was the LDL-C level obtained within the week 24 analysis window and during the main efficacy period. The main efficacy period is defined as the time from the first double-blind study drug injection up to 21 days after the last double-blind study drug injection or up to the upper limit of the week 24 analysis window, whichever comes first.
Total-C, HDL-C, TG, ApoB, ApoA-1, and Lp(a) were directly measured by a central laboratory. LDL-C was calculated using the Friedewald formula. […] Non-HDL-C was calculated by subtracting HDL-C from the total-C. Ratio ApoB/ApoA-1 was calculated.
For clarification, the ITT analysis is defined for patients in the ITT population and includes all endpoint assessments in an analysis window, regardless of study treatment dosing status (i.e. includes post-treatment assessments). The on-treatment analysis is defined for patients in the mITT population and includes all endpoint assessments from the first double-blind study drug (capsule or injection, whichever comes first) up to 21 days after the last double-blind study drug injection or 3 days after the last capsule intake, whichever comes first (i.e. includes assessments in the efficacy treatment period).

[1] = ITT Population, Comparison 3: mAb316P + rosuvastatin 20 mg arm vs. rosuvastatin 40 mg arm
[2] = ITT Population, Comparison 4: mAb316P + rosuvastatin 20 mg arm vs. EZE + rosuvastatin 20 mg arm
[3] = mITT Population, Comparison 1: mAb316P + rosuvastatin 10 mg arm vs. rosuvastatin 20 mg arm
[4] = mITT Population, Comparison 2: mAb316P + rosuvastatin 10 mg arm vs. EZE + rosuvastatin 10 mg arm
[5] = mITT Population, Comparison 3: mAb316P + rosuvastatin 20 mg arm vs. rosuvastatin 40 mg arm
[6] = mITT Population, Comparison 4: mAb316P + rosuvastatin 20 mg arm vs. EZE + rosuvastatin 20 mg arm

## mAb316P: human anti-PCSK9 antibody; heavy chain SEQ ID NO:5, light chain SEQ ID NO:9
[1]
  LS Mean Difference, percent change from baseline of Apo B to week 24: −18.5%
  LS Mean Difference, percent change from baseline of Apo-B to week 12: −15.3%
  LS Mean Difference, percent change from baseline of HDL-C at week 24: 5.7%
  LS Mean Difference, percent change from baseline of Lp(a) to week 24: −17.5%
  LS Mean Difference, percent change from baseline of Non-HDL-C to week 12: −11.8%
  LS Mean Difference, percent change from baseline of Total-C to week 12: −5.5%
  LS Mean Difference, percent change from baseline of Total-C to week 24: −12.1%
  LS Mean Difference, percent change from baseline of calculated LDL-C to week 12: −10.2%
  LS Mean Difference, percent change from baseline of calculated LDL-C to week 24: −20.3%
  LS Mean Difference, percent change from baseline of non-HDL-C to week 24: −20.1%
  Odds Ratio, proportion of patients reaching calculated LDL-C < 70 mg/dL (1.81 mmol/L) at Week 24: 6.1
  Odds Ratio, proportion of very high CV risk patients reaching calculated LDL-C < 70 mg/dL or high CV risk patients reaching calculated LDL-C < 100 mg/dL at Week 24: 4.7
[2]
  LS Mean Difference, percent change from baseline of Apo B to week 24: −17.1%
  LS Mean Difference, percent change from baseline of Apo-B to week 12: −14.7%
  LS Mean Difference, percent change from baseline of HDL-C at week 24: 9.0%
  LS Mean Difference, percent change from baseline of Lp(a) to week 24: −16.9%
  LS Mean Difference, percent change from baseline of Non-HDL-C to week 12: −11.0%
  LS Mean Difference, percent change from baseline of Total-C to week 12: −5.5%
  LS Mean Difference, percent change from baseline of Total-C to week 24: −8.2%
  LS Mean Difference, percent change from baseline of calculated LDL-C to week 12: −12.9%
  LS Mean Difference, percent change from baseline of calculated LDL-C to week 24: −25.3%
  LS Mean Difference, percent change from baseline of non-HDL-C to week 24: −18.4%
  Odds Ratio, proportion of patients reaching calculated LDL-C < 70 mg/dL (1.81 mmol/L) at Week 24: 2.5
  Odds Ratio, proportion of very high CV risk patients reaching calculated LDL-C < 70 mg/dL or high CV risk patients reaching calculated LDL-C < 100 mg/dL at Week 24: 2.3
Baseline rosuvastatin 10 mg regimen
  proportion of patients who reached LDL-C level of <70 mg/dL (1.81 mmol/L) at Week 24: 77.8%
Baseline rosuvastatin 20 mg regimen
  proportion of patients who reached LDL-C level of <70 mg/dL (1.81 mmol/L) at Week 24: 60.1%
[3]
  LS Mean Difference, percent change from baseline of Apo B to week 24: −30.7%
  LS Mean Difference, percent change from baseline of calculated LDL-C to week 12: −35.3%
  LS Mean Difference, percent change from baseline of calculated LDL-C to week 24: −35.2%
  LS Mean Difference, percent change from baseline of non-HDL-C to week 24: −32.8%
  Odds Ratio, proportion of patients reaching calculated LDL-C < 70 mg/dL (1.81 mmol/L) at Week 24: 20.3
  Odds Ratio, proportion of very high CV risk patients reaching calculated LDL-C < 70 mg/dL or high CV risk patients reaching calculated LDL-C < 100 mg/dL at Week 24: 12.4
[4]
  LS Mean Difference, percent change from baseline of Apo B to week 24: −28.3%
  LS Mean Difference, percent change from baseline of calculated LDL-C to week 12: −32.3%
  LS Mean Difference, percent change from baseline of calculated LDL-C to week 24: −33.2%
  LS Mean Difference, percent change from baseline of non-HDL-C to week 24: −28.2%
  Odds Ratio, proportion of patients reaching calculated LDL-C < 70 mg/dL (1.81 mmol/L) at Week 24: 12.7
  Odds Ratio, proportion of very high CV risk patients reaching calculated LDL-C < 70 mg/dL or high CV risk patients reaching calculated LDL-C < 100 mg/dL at Week 24: 8.9
[5]
  LS Mean Difference, percent change from baseline of Apo B to week 24: −17.7%
  LS Mean Difference, percent change from baseline of calculated LDL-C to week 12: −12.3%
  LS Mean Difference, percent change from baseline of calculated LDL-C to week 24: −24.5%
  LS Mean Difference, percent change from baseline of non-HDL-C to week 24: −20.7%
  Odds Ratio, proportion of patients reaching calculated LDL-C < 70 mg/dL (1.81 mmol/L) at Week 24: 9.0
  Odds Ratio, proportion of very high CV risk patients reaching calculated LDL-C < 70 mg/dL or high CV risk patients reaching calculated LDL-C < 100 mg/dL at Week 24: 5.9
[6]
  LS Mean Difference, percent change from baseline of Apo B to week 24: −17.8%
  LS Mean Difference, percent change from baseline of calculated LDL-C to week 12: −13.3%
  LS Mean Difference, percent change from baseline of calculated LDL-C to week 24: −24.9%
  LS Mean Difference, percent change from baseline of non-HDL-C to week 24: −17.4%
  Odds Ratio, proportion of patients reaching calculated LDL-C < 70 mg/dL (1.81 mmol/L) at Week 24: 3.4
  Odds Ratio, proportion of very high CV risk patients reaching calculated LDL-C < 70 mg/dL or high CV risk patients reaching calculated LDL-C < 100 mg/dL at Week 24: 2.7
